# Test results from US10150737B2, “Compounds for controlling arthropods” (priority 2013, dated 2018).
# How the values were obtained:
# [1] = logP determination by HPLC on a reversed-phase column (C18); type: physicochemical; details: for logP^a): HPLC-MS method a); for log P: HPLC-MS
# [2] = system: Tetranychus urticae; test: Tetranychus urticae - spray test, OP-resistant; type: in vivo; details: bean leaf discs, after 6 days
# Procedure, shortened: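 Compound dissolved in acetone/DMF, diluted with water containing 1000 ppm alkylaryl polyglycol ether emulsifier to test concentrations. Bean leaf discs infested with all stages of spider mites were sprayed; % kill determined after 6 days (100% = all mites dead, 0% = none).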
# [3] = system: Boophilus microplus; test: Boophilus microplus - injection test; type: in vivo; details: application rate 20 μg/animal, injection into engorged adult female ticks, after 7 days
# Procedure, shortened: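 Active ingredient in DMSO, 1 μl injected into the abdomen of 5 engorged adult female ticks, then held in a climate-controlled room. Efficacy scored after 7 days from laying of fertile eggs, with non-fertile-looking eggs kept about 42 days for larval hatch; 100% means no fertile eggs.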
# [4] = system: Lucilia cuprina; test: Lucilia cuprina test; type: in vivo; details: application rate 100 ppm; L1 larvae; after 2 days
# Procedure, shortened: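 About 20 L1 larvae placed on minced horsemeat treated with compound, formulated in DMSO and diluted with water to test concentration. Kill in % scored after 2 days (100% = all larvae dead, 0% = none).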
# [5] = system: Phaedon cochleariae; test: Phaedon cochleariae - spray test; type: in vivo; details: larvae on Chinese cabbage leaf discs, after 7 days
# Procedure, shortened: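 Chinese cabbage leaf discs sprayed with compound formulated in acetone/DMF and water containing 1000 ppm emulsifier; once dry, infested with mustard beetle larvae. Efficacy (% larvae killed) scored after 7 days.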
# [6] = system: Spodoptera frugiperda; test: Spodoptera frugiperda - spray test; type: in vivo; details: caterpillars on maize leaf discs, after 7 days
# Procedure, shortened: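 Maize leaf discs sprayed with compound formulated in acetone/DMF and diluted in water containing 1000 ppm alkylaryl polyglycol ether emulsifier, then infested with armyworm caterpillars after drying. Efficacy scored after 7 days as % caterpillars killed (100% all, 0% none).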
# [7] = system: Rhipicephalus sanguineus; test: Rhipicephalus sanguineus - in vitro contact tests with adult brown dog ticks; type: in vivo; details: after 48 h, ticks dead or moribund
# Protocol: (§1) For the coating of the test tubes, 9 mg of active ingredient are first dissolved in 1 ml of acetone p.a. and then diluted to the desired concentration with acetone p.a. 250 μl of the solution are distributed homogeneously on the inner walls and base of a 25 ml test tube by turning and rocking on an orbital shaker (rocking rotation at 30 rpm for 2 h). With 900 ppm active ingredient solution and internal surface 44.7 cm^2, given homogeneous distribution, an area-based dose of 5 μg/cm^2 is achieved.
# After the solvent has evaporated off, the tubes are populated with 5-10 adult dog ticks (Rhipicephalus sanguineus), sealed with a perforated plastic lid and incubated in a horizontal position in the dark at room temperature and ambient humidity. After 48 h, efficacy is determined. To this end, the ticks are knocked to the floor of the tube and incubated on a hotplate at 45-50° C. for not more than 5 min. Ticks which remain motionless on the floor or move in such an uncoordinated manner that they are unable to deliberately avoid the heat by climbing upwards are considered to be dead or moribund.
# An efficacy of 100% means that all the ticks were dead or moribund. 0% efficacy means that none of the ticks had been harmed.
# [8] = system: Ctenocephalides felis; test: Ctenocephalides felis - oral test; type: in vivo; details: application rate 100 ppm in citrated cattle blood; after 2 days
# Procedure, shortened: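 Compound in DMSO diluted into citrated cattle blood, fed through a parafilm membrane to about 20 unfed adult cat fleas. Kill in % scored after 2 days (100% = all dead).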
# [9] = system: Musca domestica; test: Musca domestica test; type: in vivo; details: application rate 100 ppm; adult houseflies; after 2 days
# Procedure, shortened: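 Compound dissolved in DMSO (10 mg per 0.5 ml) and diluted with water to the test concentration. Sponges soaked with sugar solution plus formulation were offered to 10 adult houseflies per vessel. Mortality (% kill, 100% = all dead, 0% = none) scored after 2 days.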
# [10] = system: Myzus persicae; test: Myzus persicae - spray test; type: in vivo; details: Chinese cabbage leaf discs, after 6 days
# Protocol: Solvent: 78 parts by weight of acetone and 1.5 parts by weight of dimethylformamide
# Emulsifier: alkylaryl polyglycol ether
# To produce an appropriate active ingredient formulation, 1 part by weight of active ingredient is dissolved using the specified parts by weight of solvent and made up with water containing an emulsifier concentration of 1000 ppm until the desired concentration is attained. To produce further test concentrations, the preparation is diluted with emulsifier-containing water.
# Discs of Chinese cabbage leaves (Brassica pekinensis) infested by all stages of the green peach aphid (Myzus persicae) are sprayed with an active ingredient formulation of the desired concentration.
# After 6 days, efficacy in % is determined. 100% means that all the aphids have been killed; 0% means that none of the aphids have been killed.
# [11] = system: Boophilus microplus Parkhurst strain, SP-resistant; test: Boophilus microplus - dip test; type: in vivo; details: application rate 100 ppm; dip of engorged adult female ticks; after 7 days
# Protocol: Test animals: cattle ticks (Boophilus microplus) Parkhurst strain, SP-resistant
# Solvent: dimethyl sulphoxide
# 10 mg of active ingredient are dissolved in 0.5 ml of dimethyl sulphoxide. For the purpose of producing a suitable formulation, the active ingredient solution is diluted with water to the concentration desired in each case.
# This active ingredient formulation is pipetted into tubes. 8-10 adult engorged female cattle ticks (Boophilus microplus) are transferred into a further tube with holes. The tube is immersed into the active ingredient formulation, and all the ticks are completely wetted. After the liquid has run out, the ticks are transferred on filter discs into plastic dishes and stored in a climate-controlled room.
# Efficacy is assessed after 7 days by laying of fertile eggs. Eggs which are not visibly fertile are stored in a climate-controlled cabinet until the larvae hatch after about 42 days. An efficacy of 100% means that none of the ticks has laid any fertile eggs; 0% means that all the eggs are fertile.
# [12] = system: Ctenocephalides felis; test: Ctenocephalides felis - in vitro contact tests with adult cat fleas; type: in vivo; details: application rate 5 μg/cm2 (=500 g/ha); after 48 h; fleas dead or moribund
# Protocol: as §1, with “surface area” for “surface”
# After the solvent has evaporated off, the tubes are populated with 5-10 adult cat fleas (Ctenocephalides felis), sealed with a perforated plastic lid and incubated in a horizontal position at room temperature and ambient humidity. After 48 h, efficacy is determined. To this end, the test tubes are stood upright and the fleas are knocked to the base of the tube. Fleas which remain motionless at the base or move in an uncoordinated manner are considered to be dead or moribund.
# 100% efficacy means that all the fleas were dead or moribund. 0% efficacy means that no fleas were harmed.
# [13] = reversed-phase column (C18), Table I-T3
Compound,logP^a) [1],efficacy ([2]; application rate 500 g/ha),efficacy (laying of fertile eggs) [3],efficacy (kill) [4],efficacy ([5]; application rate 500 g/ha),efficacy ([6]; application rate 500 g/ha),efficacy ([7]; application rate 5 μg/cm2),efficacy (kill) [8],efficacy (kill) [9],efficacy ([5]; application rate 100 g/ha),efficacy ([6]; application rate 100 g/ha),"log P [1, 13]",efficacy ([10]; application rate 100 g/ha),efficacy (laying of fertile eggs) [11],efficacy [12],logP^a) ([1]; reversed-phase column (C18)),further results
CCc1cc(C(F)(C(F)(F)F)C(F)(F)F)cc(C)c1-n1cc(-c2ccc(Cl)c(C(=O)NC3CSC3)c2)cn1 [I-T3-47],5.0,100%,100%,100%,100%,100%,100%,100%,–,–,–,–,–,–,–,–,"logP^a) [1, 13]: 5.0"
O=C(NC1CC1)c1cc(-c2cnn(-c3ccc(C(F)(C(F)(F)F)C(F)(F)F)cc3C(F)(F)F)c2)ccc1Cl [I-T3-52],4.3,–,100%,100%,–,–,100%,100%,100%,100%,100%,–,–,–,–,–,"logP^a) [1, 13]: 4.3; efficacy ([2]; application rate 100 g/ha): 90%"
O=C(NC1CC1)c1cc(-c2cnn(-c3ccc(OC(F)(F)F)cc3Cl)c2)ccc1Cl [I-T3-90],3.6,90%,100%,100%,100%,100%,100%,100%,90%,–,–,3.6,–,–,–,–,–
CN(C(=O)c1cc(-c2cnn(-c3c(Cl)cc(C(F)(F)F)cc3Cl)c2)cnc1Cl)C1CC1 [I-T3-99],3.5,–,100%,100%,–,–,–,100%,90%,100%,100%,3.5,100%,90%,100%,–,efficacy ([2]; application rate 100 g/ha): 100%
CN(C(=O)c1cc(-c2cnn(-c3c(Cl)cc(C(F)(C(F)(F)F)C(F)(F)F)cc3C(F)(F)F)c2)cnc1Cl)C1CC1 [I-T3-113],–,100%,100%,100%,100%,100%,–,100%,100%,–,–,4.0,100%,100%,–,4.0,–
Cc1cc(C(F)(C(F)(F)F)C(F)(F)F)cc(C)c1-n1cc(-c2cnc(C)c(C(=O)N(C)C3(C#N)CC3)c2)cn1 [I-T3-115],–,100%,100%,100%,100%,100%,–,100%,100%,–,–,3.8,100%,100%,100%,3.8,–
Cc1cc(C(F)(C(F)(F)F)C(F)(F)F)cc(C(F)(F)F)c1-n1cc(-c2cnc(C)c(C(=O)N(C)C3CC3)c2)cn1 [I-T3-118],–,90%,100%,100%,100%,100%,–,100%,100%,–,–,3.8,100%,100%,100%,3.8,–
Cc1cc(C(F)(C(F)(F)F)C(F)(F)F)cc(C)c1-n1cc(-c2cnc(C)c(C(=O)N(C)C3CC3)c2)cn1 [I-T3-120],–,100%,100%,100%,100%,100%,–,100%,100%,–,–,3.6,100%,100%,100%,3.6,efficacy ([10]; application rate 500 g/ha): 90%
Cc1ncc(-c2cnn(-c3c(Cl)cc(C(F)(C(F)(F)F)C(F)(F)F)cc3C(F)(F)F)c2)cc1C(=O)N(C)C1CC1 [I-T3-130],–,–,100%,100%,–,–,–,100%,100%,100%,100%,3.8,100%,100%,100%,3.8,efficacy ([2]; application rate 100 g/ha): 100%
COc1ncc(-c2cnn(-c3c(C)cc(C(F)(C(F)(F)F)C(F)(F)F)cc3C)c2)cc1C(=O)NC1(C#N)CC1 [I-T3-141],–,–,100%,100%,–,–,–,100%,100%,100%,100%,4.4,–,–,–,4.4,efficacy ([7]; application rate 1 μg/cm2): 100%
"Cc1cc(C(F)(C(F)(F)F)C(F)(F)F)cc(C)c1-c1cnn(-c2ccc(Cl)c(C(=O)NC3CC3)c2)c1 [I-T4-1, N-cyclopropyl-2-chloro-5-[4-[2,6-dimethyl-4-[1,2,2,2-tetrafluoro-1-(trifluoromethyl)ethyl]phenyl]pyrazol-1-yl]benzamide]",–,–,–,–,–,–,100%,–,–,–,–,–,–,–,–,–,"logP ([1]; HPLC, C18 reversed phase, acetonitrile/water with formic acid, EEC Directive 79/831 Annex V.A8): 4.7; pest or weed control at 0.02 mg ([3]; Rhipicephalus microplus, 168 h, read-out: efficacy (laying of fertile eggs)): 100%"
